Reference: patent US20230271956A1, “AMIDE DERIVATIVES” (Merck Patent GmbH, priority 2020, published 2023)

What was measured:
[1] = target: T1, human rec ACSS2 (Homo sapiens, UniProt Q9NR19); assay: Biochemical activity ACSS2 assay (AMP-Glo); conditions: human recombinant ACSS2, AMP-Glo, 180 min at 37° C.
T1 construct: myc (C); purchased Origene
Method in brief: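 C-terminal myc-tagged human recombinant ACSS2 (1 nM) reacted with 100 µM ATP, 100 µM CoA and 500 µM acetate (final) in pH 7.5 Hepes buffer for 180 min at 37° C, compound in 10 concentrations from 30 µM. Released AMP detected by AMP-Glo luminescence. IC50 normalised to inhibitor-free reaction and 5 µM reference inhibitor.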

[2] = target: T2, ACSS2 (Homo sapiens, UniProt Q9NR19); assay: Cellular assay of 14C acetate incorporation into histones (IC50 ACSS2 cellular histone); type: cell-based; conditions: HCT-15 cells
T2 construct: endogenous fatty acid synthesis activity in the human HCT-15 cancer cell line; endogenous in cells; host or cells: HCT-15
Method in brief: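 Human HCT-15 cells preincubated 1 h with compound (0.25% DMSO final), then pulsed 3 h with 14C-acetate. Histones were acid-extracted (0.2 M HCl, overnight, 4° C) after Triton lysis in sodium-butyrate buffer; incorporated 14C counted by liquid scintillation (CPM) to give IC50.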

[3] = tested on: CHO-K1 cells; assay: Micronucleus assay (MNT) in vitro; type: cell-based; set-up: key: A: negative, putative negative (micronuclei detected beyond threshold of 60% cyctotoxicity); B: positive; conditions: 24 hrs treatment, 0.2 µM to 100 µM
Protocol: The in vitro MNT assay is performed in CHO-K1 cells due to their stable and welI-characterized karyotype, high sensitivity and suitability for a high content imaging approach. They have a basal spontaneous micronucleus frequency of 3-4%.
24 hrs after plating CHO-K1 cells are treated with test compounds for 24 hrs (in duplicates; fixed concentration ranges from 0.2 µM to 100 µM in 2-fold dilution steps). After a medium change cells are incubated for 24 hrs with Cytochalasin B to block cytokinesis and are then fixed and nuclei / micronuclei visualized with a DNA stain. Images are acquired with the Molecular Devices high content imagers IXU or IXM and are analyzed with the dedicated MetaXpress software micronucleus module. Criteria for scoring of micronuclei (MN) are the following: • diameter of the MN should be less than ⅓ of the main nucleus • MN should be separated from or marginally overlap with main nucleus (= no blebs) • MN should have similar staining as the main nucleus At least 1000 binucleated cells are evaluated per treatment replicate. Mitomycin C is used as reference stimulator of micronucleus formation. Cytotoxicity is evaluated in parallel and defined by comparing total nuclei count in compound-treated samples to neutral control samples treated with vehicle only (1% DMSO) (100% cytotoxicity means all cells are dead or lost).
A test compound is regarded as POSITIVE if generation of micronuclei and exhibition of less than 60% cytotoxicity at the same concentration can be observed.
Compounds are scored only in the soluble concentration range. Experimental data of the compounds shown in Table 1 in the MNT assay are shown in Table 2 below and classified in the following groups: […]

[4] = target: T2, ACSS2; assay: Cellular assay of 14C acetate incorporation into fatty acids (IC50 ACSS2 cellular lipids); type: cell-based; conditions: HCT-15 cells
Protocol: This protocol describes a cellular assay capable to quantify endogenous fatty acid synthesis activity in the human HCT-15 cancer cell line following the incorporation of extracellularly administered radiolabeled ^14C acetate with a scintillation proximity based read out on extracted fatty acids.
HCT-15 cells were grown in RPMI 1640 (Gibco) supplemented with 2 mM glutamine, 1 mM sodium pyruvate 10 mM HEPES and 10 % FCS (heat-inactivated) passaged every 2-3 days to remain a subconfluent, vital culture. A working cell bank was prepared with each aliquot containing 1x10^7 viable cells. After thawing, these cells are dilute immediately 1:20 in pre-warmed (37° C.) culture medium. Cells are collected by centrifugation at 200 x g for 5 min, and the supernatant is replaced by 30 mL of fresh culture medium per aliquot to obtain a cell suspension containing 350000 cells/ml. From this cell suspension 100 µL are dispersed into each well of a collagen coated 96 well plate, (black, clear bottom, PS, F-bottom, Greiner) and culture for 24 h (37° C., 5% CO2). After incubation the culture medium is removed and the wells are washed once with 100 µL PBS++ (supplemented with Mg^2+/ Ca^2+, Gibco) and 50 µL assay medium (RPMI 1640 + 10 mM HEPES) are added to each well. Compounds serial dilutions are prepared from 10 mM stock solutions in DMSO using a fixed dilution factor (usually 1:3). After preparation of the dilution series in DMSO, the individual dilutions are further diluted in the assay medium. This working dilution is prepared such, that the concentration is 7x of the final concentration in the assay. The maximal DMSO concentration in the final assay is 0.1%.
To each well 10 µL compound working dilution or DMSO blank are added and the cells are cultured for 2 h (37° C., 5% CO2). Then 10 µL AlamarBlue reagent (Invitrogen) containing 14 µCi/mL ^14C-acetate (Perkin Elmer) are added to each well (70 µl total volume) and cells are again cultured for 2 h. Cell viability is verified by measuring the AlamarBlue fluorescence (Tecan Safire, ex: 544 nm / em: 590 nm). After incubation the culture medium is removed and the wells are carefully washed once with cold 100 µL PBS++. For cell lysis and fatty acid recovery 50 µl 0.1 M NaOH and 0.1 % Triton-X100 are added per well. The plate is sealed with PlateLoc (clear peelable heat seal, Agilent) and incubate at 70° C. for 16-24 h. After cooling to room temperature, the plates are centrifuged for 1 min at 1000 rpm and the plate seals are removed. For acidification 150 µL 0.1 M HCl are added to each well, mixed and 150 µL of the mixture are transferred into a 96 well FlashPlate (Perkin Elmer). The plates are sealed with TopSeaI-a (Perkin Elmer). To allow for the fatty acid binding to the well surfaces the plates are incubate for 4 h at 70° C. After cooling to room temperature, the plates are centrifuged for 1 min at 1000 rpm and stored for 0.5-2 h at room temperature in the dark. Radioactivity from ^14C incorporation into fatty acids in the wells is measured as CPM count in a MicroBeta scintillation counter (Perkin Elmer).

T2 sequence (Q9NR19 whole entry): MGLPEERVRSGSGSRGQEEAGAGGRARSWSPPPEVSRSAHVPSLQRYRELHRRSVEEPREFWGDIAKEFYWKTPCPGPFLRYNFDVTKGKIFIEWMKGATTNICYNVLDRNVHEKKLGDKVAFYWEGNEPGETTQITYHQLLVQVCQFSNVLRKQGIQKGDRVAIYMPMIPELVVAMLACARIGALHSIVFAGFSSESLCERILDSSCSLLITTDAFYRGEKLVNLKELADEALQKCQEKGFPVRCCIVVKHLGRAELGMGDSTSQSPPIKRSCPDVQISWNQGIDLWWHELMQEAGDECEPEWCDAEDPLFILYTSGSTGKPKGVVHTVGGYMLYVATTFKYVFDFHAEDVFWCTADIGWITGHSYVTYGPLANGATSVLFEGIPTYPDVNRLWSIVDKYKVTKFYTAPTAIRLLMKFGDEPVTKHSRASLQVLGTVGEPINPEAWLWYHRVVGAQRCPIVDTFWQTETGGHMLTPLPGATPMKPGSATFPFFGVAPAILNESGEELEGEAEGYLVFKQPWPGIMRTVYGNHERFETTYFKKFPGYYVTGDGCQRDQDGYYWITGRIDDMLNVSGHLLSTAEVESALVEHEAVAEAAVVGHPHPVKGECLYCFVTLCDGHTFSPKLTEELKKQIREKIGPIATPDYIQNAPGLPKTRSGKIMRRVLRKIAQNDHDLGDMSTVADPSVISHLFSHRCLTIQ
T1 sequence (Q9NR19 whole entry): as above

In the case of `CCc1c(C(O)(c2ccccc2)c2ccccn2)nc2cc(OC)c(C(=O)Nc3ncn(CC)n3)cn12` (single isomer, unassigned) [Compound 18, 3-ethyl-N-(1-ethyl-1,2,4-triazol-3-yl)-2-[hydroxy-phenyl-(2-pyridyl)methyl]-7-methoxy-imidazo[1,2-a]pyridine-6-carboxamide], the IC50 [1] is reported as 100 to 10000 nM, the IC50 [2] is reported as 100 to 10000 nM and the MNT [3] is reported as “A”.

For `CCc1c(C(O)(c2ccccc2)c2ccn(C)n2)nc2cc(OC)c(C(=O)Nc3ncn(CC)n3)cn12` (single isomer, unassigned) [Compound 21, 3-Ethyl-2-[hydroxy-(1-methyl-1H-pyrazol-3-yl)-phenyl-methyl]-7-methoxy-imidazo[1,2-a]pyridine-6-carboxylic acid (1-ethyl-1H-[1,2,4]triazol-3-yl)-amide], the IC50 [1] was 100 to 10000 nM and the MNT [3] was “A”.

`CCc1c(C(O)(c2ccccc2)c2ccn(C)n2)nc2cc(OC)c(C(=O)Nc3ncn(CC)n3)cn12` (single isomer, unassigned) [Compound 22, 3-Ethyl-2-[hydroxy-(1-methyl-1H-pyrazol-3-yl)-phenyl-methyl]-7-methoxy-imidazo[1,2-a]pyridine-6-carboxylic acid (1-ethyl-1H-[1,2,4]triazol-3-yl)-amide] was tested, and the IC50 [1] was 10 to 100 nM, the IC50 [2] was 10 to 100 nM and the MNT [3] was “A”.

In the case of `CCc1c(C(O)(c2ccccc2F)c2ccccc2F)nn2cc(OC)c(C(=O)Nc3ncn(CC)n3)cc12` [Compound 7, 2-[Bis-(2-fluoro-phenyl)-hydroxy-methyl]-3-ethyl-6-methoxy-pyrazolo[1,5-a]pyridine-5-carboxylic acid (1-ethyl-1H-[1,2,4]triazol-3-yl)-amide], the IC50 [1] is reported as 1 to 10 nM, the IC50 [2] is reported as 1 to 10 nM and the MNT [3] is reported as “A”.

For `CCc1c(C(O)(c2ccccc2)c2ccccc2)nc2cc(F)c(C(=O)Nc3cnn(CC)c3)cn12` [Compound 15, 3-Ethyl-7-fluoro-2-(hydroxy-diphenylmethyl)-imidazo[1,2-a]pyridine-6-carboxylic acid (1-ethyl-1H-pyrazol-4-yl)-amide], the IC50 [1] was 10 to 100 nM, the IC50 [2] was 10 to 100 nM and the MNT [3] was “A”.

`CCc1c(C(O)(c2ccccc2F)c2ccccc2F)nc2cc(Cl)c(C(=O)Nc3cnn(CC)c3)cn12` [Compound 29, 2-[Bis-(2-fluoro-phenyl)-hydroxy-methyl]-7-chloro-3-ethyl-imidazo[1,2-a]pyridine-6-carboxylic acid (1-ethyl-1H-pyrazol-4-yl)-amide] was tested, and the IC50 [1] was 10 to 100 nM, the IC50 [2] was 10 to 100 nM and the MNT [3] was “A”.

In the case of `CCn1cc(NC(=O)c2cc3c(nc2OC)nc(C(O)(c2ccccc2F)c2ccccc2F)n3CC)cn1` [Compound 104, 2-[bis(2-fluorophenyl)(hydroxy)methyl]-1-ethyl-N-(1-ethyl-1H-pyrazol-4-yl)-5-methoxy-1H-imidazo[4,5-b]pyridine-6-carboxamide], the IC50 [1] is reported as 1 to 10 nM, the IC50 [4] is reported as 1 to 10 nM and the IC50 [2] is reported as 1 to 10 nM.

`CCn1cc(NC(=O)c2cc3c(nc2C)nc(C(O)(c2ccccc2F)c2ccccc2F)n3CC)cn1` [Compound 107, 2-[bis(2-fluorophenyl)(hydroxy)methyl]-1-ethyl-N-(1-ethyl-1H-pyrazol-4-yl)-5-methyl-1H-imidazo[4,5-b]pyridine-6-carboxamide] was tested, and the IC50 [1] was 1 to 10 nM, the IC50 [4] was 10 to 100 nM and the IC50 [2] was 0.01 to 1 nM.

`CCn1cnc(NC(=O)c2cc3c(nc2C)nc(C(O)(c2ccccc2)c2ccccc2)n3CC)n1` [Compound 108, 1-ethyl-N-(1-ethyl-1H-1,2,4-triazol-3-yl)-2-(hydroxydiphenylmethyl)-5-methyl-1H-imidazo[4,5-b]pyridine-6-carboxamide] showed an IC50 [1] of 1 to 10 nM, an IC50 [4] of 10 to 100 nM and an IC50 [2] of 1 to 10 nM.

`CCn1cnc(NC(=O)c2cnc3nc(C(O)(c4ccccc4)c4ccccc4)n(CC)c3c2)n1` [Compound 111, 1-ethyl-N-(1-ethyl-1H-1,2,4-triazol-3-yl)-2-(hydroxydiphenylmethyl)-1H-imidazo[4,5-b]pyridine-6-carboxamide] was tested, and the IC50 [1] was 1 to 10 nM, the IC50 [4] was 100 to 10000 nM and the IC50 [2] was 100 to 10000 nM.
